Measured values published in patent US12083123B2, “Method for the detection of drug-induced organ or tissue injury in IMPDH inhibitor treated patients” (University of Cincinnati, priority 2020, dated 2024).

Experiments:
[1] = test system: Kupffer cells; assay: Human liver specimens from MMF-treated patients: macrophages in livers (Kupffer cells); assay type: in vivo
[2] = test system: transplanted liver; assay: Transplant liver biopsies (histology, EM, LFTs) of liver transplant recipients treated with MMF; assay type: in vivo, human
Protocol: One biopsy from a patient (Case 4) was performed for surveillance purpose. Ultrastructural analysis included obtaining a small portion of the liver biopsies and post-fixing in osmium tetroxide and embedded in epoxy resin. Ultra-thin sections were stained with uranyl acetate/lead citrate. Detailed evaluation was made using Morgagni transmission electron microscope (EM, FEI, Hillsboro, OR). 2 H&E (hematoxylin and eosin) and 5 special (1 each for PAS, PASD, reticulin, iron and trichrome) stained slides were used per biopsy. ACR was diagnosed and scored using the Rejection Activity Index (RAI), which included: 1) portal inflammation (score 1-3), 2) bile duct damage (score 1-3), and 3) venous endothelial inflammation (score 1-3). Each score was added (RAI) and the degree of ACR was scored as follows: RAI=0-9; <3: borderline/indeterminate ACR, 3-4: mild ACR, 5-7: moderate ACR and >7: severe ACR. (Banff; 1997). Nonspecific hepatocellular injury is often referred to “reactive changes”. Histologic features of “reactive changes” include enlarged hepatocytes with hydropic changes (expanded, pale to clear cytoplasm) and coarse eosinophilic granules (e.g. mega-mitochondria), and nuclei with anisonucleosis and bi- and multi-nucleation, cholestasis, steatosis and necrosis. Necrosis can range from single cell necrosis (acidophil bodies) to rarely broad necrosis with collapsed lobules.

[3] = test system: hepatic Kupffer cells; assay: Mouse model treated with MMF by oral gavage: light microscopy of tissues, Kupffer cells and IMPDH2 expression; assay type: in vivo; conditions: MMF 120 mg/kg daily for over two weeks by oral gavage
Protocol: To further study the potential changes caused by MMF treatment, an animal model (mouse) was used and treated with MMF 120 mg/kg daily for over two weeks by oral gavage. As a control, another group of mice was treated with the vehicle used for MMF. Among the issues investigated (e.g., liver, kidney, ovary, brain, white adipose and brown adipose tissues, pancreas, stomach, lung), a major change that is easily detected by light microscope (400× magnification) is pointed on hepatic Kupffer cells. […] In addition, IMPDH2 expression levels within the Kupffer cells were increased compared to MMF-untreated mouse liver.

[4] = cited from earlier work
[5] = test system: mouse liver hepatocytes; assay: Mouse study: liver histology and EM image analysis of MMF-treated vs untreated mice; assay type: in vivo
Protocol: The body weights of the mice were recoded every day. […] The rest of the mice were sacrificed on day 14 and a necropsy was performed on the surviving mice.
H&E and trichrome staining was performed on each liver sections from 3 MMF treated and 5 untreated mice at a CLIA-certified laboratory at CHLA.
Ultrastructural analysis was performed as described for human liver biopsies on the mouse liver tissue from the MMF treated and untreated mice. The EM images were captured digitally at the same magnification (18,000×). Thirty hepatocytes per mouse liver are selected randomly and the numbers of the mitochondria and lipid droplets were counted per hepatocytes using the digital images. In addition, the greatest dimensions of randomly selected 50 mitochondria per hepatocytes from each mouse were measured using an image analysis software, Cellsens® (Olympus, Tokyo, Japan).
The numbers of the mitochondria and the lipid droplets and the sizes of the mitochondria of the hepatocytes from MMF treated and untreated mice were compared by repeated measures mixed model analysis, with […] as a random effect and group as fixed, at a 0.005 significance level, using Prism8 software (Graphpad Software, San Diego, CA, USA).

[6] = test system: WT-PI5P4Kβ/Pip4K2b−/− cells; assay: Lysosomal acidification in serum starved WT-PI5P4Kβ/Pip4K2b−/− cells; assay type: cell-based; conditions: MPA treatment for 2 h
[7] = Case 1-3, liver transplant recipients treated with MMF
[8] = the 11 patients with elevated LFTs
[9] = EM image analysis, MMF-treated for 14 days vs untreated group

Structure (SMILES)	number and size of macrophages in livers (Kupffer cells) [1]	electron microscopy (EM) finding in transplant liver biopsies [2, 7]	histology of transplant liver biopsies [2, 7]	LFTs after stopping or reducing MMF ([2]; Case 1 and 2)	changes in the other tissues by standard light microscopic analysis ([3]; kidney, ovary, brain, adipose tissues, pancreas, stomach, lung)	Kupffer cell size and numbers ([3]; light microscope 400×, vs vehicle)	IMPDH2 expression levels within the Kupffer cells ([3]; vs MMF-untreated mouse liver)	patients with elevated LFTs ([4]; of 79 renal transplant recipients treated with MMF) [%]	abnormal LFTs after reduction or withdrawal of MMF ([4]; renal transplant recipients with elevated LFTs)	ALT, median and range [4, 8]	AST, median and range [4, 8]	degree of mitochondrial pleomorphism (size differences) in the hepatocytes [5, 9]	numbers of lipids (lipid droplets) in the hepatocytes [5, 9]	numbers of mitochondria in the hepatocytes [5, 9]	death during treatment ([5]; MMF treated group, 14 day treatment)	liver histology (H&E) ([5]; MMF-treated for 14 days vs untreated mice)	lysosomal acidification [6]
COc1c(C)c2c(c(O)c1C/C=C(\C)CCC(=O)OCCN1CCOCC1)C(=O)OC2 [MMF, mycophenolate mofetil]	significant increase	mitochondrial pleomorphism and crystalloid inclusions	only mild nonspecific hepatocellular injury	improved	did not show any significant changes	enlarged (hyperplasia/activated) and increased in their numbers	increased	13.9	normalized	222.0 (51-508) U/L	83.0 (50-123) U/L	significantly increased	significantly increased	significantly increased	Two mice in the MMF treated group died	no recognizable differences	–
COc1c(C)c2c(c(O)c1C/C=C(\C)CCC(=O)O)C(=O)OC2 [MPA, mycophenolic acid]	–	–	–	–	–	–	–	–	–	–	–	–	–	–	–	–	suppressed lysosomal acidification
